Measurements published in patent publication US6916937B2, “Carbohydrate prodrugs of fluorooxindoles” (Bristol-Myers Squibb Company, priority 2003, dated 2005).

Columns and labels:
[1] = test system: focal cerebral ischemia (MCAO) in the Wistar rat; test: Focal stroke model, permanent MCA and CCA occlusion; format: in vivo; settings: 0.3 mg/kg i.v. single bolus two hours after MCA occlusion; infarct measured 24 hours after MCAO
Procedure: To determine the ability of the compounds of the present invention to reduce cell loss resulting from neuronal ischemia, a standard focal cerebral ischemia is induced by permanent occlusion of the left middle cerebral artery (MCA) and common carotid artery (CCA) with one hour occlusion of the right CCA in the Wistar rat. The surgeries are performed using the sub-temporal approach of A. Tamura, et al., J. Cereb. Blood Flow Metab., 1, pp. 53-60, (1981) and its modifications [K. Osborne, et al., J. Neurol Neurosurg. Psychiatry, 50, pp. 402-410 (1987) and S. Menzies, et al., Neurosurgery, 31, pp. 100-107, (1992).]
The compound of Formula II was evaluated in the focal stroke model involving permanent occlusion of the left MCA (MCAO) and CCA (CCAO) and temporary occlusion of the right CCA in the Wistar rat [Gribkoff, et al. Nature Med. 7, pp. 471-477 (2001)]. This procedure results in a reliably large neocortical infarct volume that is measured by means of vital dye exclusion in serial slices through the brain 24 hours after MCAO. In the present test, compounds were administered using an i.v. or i.p. route of administration two hours after occlusion.

[2] = test system: non-BK native currents in the oocytes; test: Effect on non-BK native currents in oocytes (current remaining with IBTX); format: cell-based, Xenopus; settings: at the tested concentration
Procedure: (§1) The ability of the compound of Formula II to open BK channels and increase whole-cell outward (K^+) BK-mediated currents was assessed under voltage-clamp conditions by determining their ability to increase cloned mammalian (mSlo or hSlo) BK—mediated outward current heterologously expressed in Xenopus oocytes [Butler, A., et al., Science, 261, pp. 221-224 (1993); and Dworetzky, S. I., et al., Mol. Brain Res., 27, pp.189-193 (1994)]. The two BK constructs employed represent nearly structurally identical homologous proteins, and have proven to be pharmacologically identical in our tests. To isolate BK current from native (background, non-BK) current, the specific and potent BK channel-blocking toxin iberiotoxin (IBTX) [Galvez, A., et al., J. Biol. Chem, 265, pp.11083-11090 (1990)] was employed at a supramaximal concentration (50 nM). The relative contribution of BK channels current to total outward current was determined by subtraction of the current remaining in the presence of IBTX (non-BK current) from the current profiles obtained in all other experimental conditions (control, drug, and wash). […] The compound of Formula II was shown in at least 5 oocytes at a concentration of 10 μM to increase BK current to 170% of control of IBTX-sensitive current. […]

[3] = test system: cloned mammalian (mSlo or hSlo) BK channels; test: Increase of BK-mediated outward current in Xenopus oocytes, two-electrode voltage clamp; format: cell-based; settings: 10 μM; at least 5 oocytes; mSlo or hSlo expressed in Xenopus oocytes
Procedure: as §1

[4] = test system: rat traumatic brain injury (TBI) model; settings: Cheney et al. 2001; cited from earlier work

## COc1ccc(Cl)cc1C1(F)C(=O)Nc2cc(C(F)(F)F)ccc21 (racemic) [compound of Formula II, 3-(5-chloro-2-methoxyphenyl)-1,3-dihydro-3-fluoro-6-(trifluoromethyl)-2H-indol-2-one]
[1]
  Reduction of cortical infarct volume vs vehicle-treated control: about 28%
[2]
  Effect on non-BK native currents in the oocytes: did not effect
[3]
  BK current, % of control of IBTX-sensitive current: 170 % of control

## COc1ccc(Cl)cc1[C@]1(F)C(=O)Nc2cc(C(F)(F)F)ccc21 [Compound of Formula (S)-II, (S)-3-(5-chloro-2-methoxy-phenyl)-3-fluoro-6-trifluoromethyl-1,3-dihydro-indol-2-one]
[4]
  Reduction in edema in regions adjacent to the impact zone: significant reductions in edema
